Assay results as given in US20090105245A1, “METHODS FOR TREATING MACULAR EDEMA AND OCULAR ANGIOGENESIS USING AN ANTI-INFLAMMATORY AGENT AND A RECEPTOR TYROSINE KINASE INHIBITOR” (priority 2006, published 2009).
“Also recorded” adds a separate entry of the source.

Columns and labels:
[1] = test system: laser-induced choroidal neovascularization in the mouse; assay: Mouse laser-induced CNV, topical NSAID drops; assay type: in vivo; conditions: for CNV lesions at Bruch's membrane rupture sites vs vehicle: follow-up experiment
Procedure: METHODS: Choroidal neovascularization was generated by modification of a previously described technique [Tobe, 1998 #448]. Briefly, 4 to 5 week old female C57BL/6J mice were anesthetized with ketamine hydrochloride (100 mg/kg body weight) and the pupils were dilated with 1% tropicamide. Three burns of 532 nm diode laser photocoagulation (75 μm spot size, 0.1 seconds duration, 120 mW) were delivered to each retina using the slit lamp delivery system of an OcuLight GL Photocoagulator (Iridex, Mountain View, Calif.) and a hand held cover slide as a contact lens. Burns were performed in the 9, 12, and 3 o'clock positions of the posterior pole of the retina. Production of a bubble at the time of laser, which indicates rupture of Bruch's membrane, is an important factor in obtaining CNV [Tobe, 1998 #448], so only burns in which a bubble was produced were included in the study. […] In some experiments, both eyes were treated with drug and these mice were compared to littermates in which both eyes were treated with vehicle. In other experiments, one eye was treated with drug and the fellow eye was treated with vehicle. Eyes were rapidly dissected for choroidal flat mounts or frozen in optimum cutting temperature embedding compound (OCT; Miles Diagnostics, Elkhart, Ind.).
The sizes of CNV lesions were measured in choroidal flat mounts (Edelman and Castro, 2000). Mice used for the flat mount technique were anesthetized and perfused with 1 ml of phosphate-buffered saline containing 50 mg/ml of fluorescein-labeled dextran (2×10^6 average mw, Sigma, St. Louis, Mo.) as previously described (Tobe et al., 1998a). The eyes were removed and fixed for 1 hour in 10% phosphate-buffered formalin. The cornea and lens were removed and the entire retina was carefully dissected from the eyecup. Radial cuts (4-7, average 5) were made from the edge to the equator and the eyecup was flat mounted in Aquamount with the sclera facing down. Flat mounts were examined by fluorescence microscopy on an Axioskop microscope (Zeiss, Thornwood, N.Y.) and images were digitized using a 3 color CCD video camera (IK-TU40A, Toshiba, Tokyo, Japan) and a frame grabber. Image-Pro Plus software (Media Cybernetics, Silver Spring, Md.) was used to measure the total area of hyperfluorescence associated with each burn, corresponding to the total fibrovascular scar. The areas within each eye were averaged to give one experimental value per eye for plotting the areas in the figures.
In some mice, the eyes were rapidly removed and frozen in optimum cutting temperature embedding compound (OCT; Miles Diagnostics, Elkhart, Ind.). Ten μm frozen sections were cut through entire lesions and the sections were histochemically stained with biotinylated Griffonia simplicifolia lectin B4 (GSA, Vector Laboratories, Burlingame, Calif.) which selectively binds to vascular cells. Slides were incubated in methanol/H2O2 for 10 minutes at 4° C., washed with 0.05 M Tris-buffered saline, pH 7.6 (TBS), and incubated for 30 minutes in 10% normal porcine serum. Slides were incubated 2 hours at room temperature with biotinylated GSA and after rinsing with 0.05M TBS, they were incubated with avidin coupled to peroxidase (Vector Laboratories) for 45 minutes at room temperature. The slides were developed with HistoMark Red (Kirkegaard and Perry, Cabin John, Md.) to give a red reaction product and counter stained with Contrast Blue (Kirkegaard and Perry).

[2] = test system: preretinal neovascularization in the mouse model of oxygen-induced retinopathy; assay: Mouse model of oxygen-induced ischemic retinopathy, topical drops; assay type: in vivo; conditions: for retinal (preretinal) neovascularization vs vehicle: P12-P17
Procedure: METHODS: Ischemic retinopathy was produced in C57BL/6J mice by a method described by Smith et al [Smith, 1994 #50]. Seven-day-old (P7) mice and their mothers were placed in an airtight incubator and exposed to an atmosphere of 75±3% oxygen for 5 days. Incubator temperature was maintained at 23±2° C., and oxygen was measured every 8 hours with an oxygen analyzer. After 5 days, the mice were removed from the incubator, placed in room air, and drug treatment was begun. Mice were given one drop four times a day in masked fashion. At P17, after 5 days of treatment, mice were sacrificed, eyes were rapidly removed and frozen in OCT.
Ocular frozen sections (10 μm) were histochemically stained with GSA as described above except that diaminobenzidine was used to give a brown reaction product. Slides were counterstained with eosin, which stains the internal limiting membrane and mounted with Cytoseal. To perform quantitative assessments, 10 μm serial sections were cut through the entire eye starting with sections that included the iris root on one side of the eye and proceeding to the iris root on the other side. Every tenth section, roughly 100 μm apart, were stained with GSA, examined with an Axioskop microscope, and images were digitized using a 3 CCD color video camera and a frame grabber. Image-Pro Plus software was used to delineate GSA-stained cells on the surface of the retina and their area was measured. For plotting the area measurements for the figure, the mean of the measurements from each eye was used as a single experimental value.

VEGF mRNA = assay: Semi-quantitative RT-PCR of retinal VEGF mRNA in mice with ischemic retinopathy; assay type: in vivo, mouse; conditions: P12-P17
Procedure: Mice with ischemic retinopathy were treated with 0.1% or 0.5% Nepafenac drops or vehicle drops four times a day between P12 and P17 and then sacrificed and retinal RNA was isolated using the guanidine isothiocyanate method as described by Chomczynski and Sacchi [Chomczynski, 1987 #30]. Reverse transcription was carried out with 0.5 μg of total RNA, reverse transcriptase (SuperScript II, Life Technologies, Gaithersburg, Md.), and 5.0 μM oligo d(T) primer. Aliquots of the cDNAs were used for PCR amplification with primers specific for VEGF, (5′-TTACTGCTGTACCTCCACC-3′) and (5′-ACAGGACGGCTTGAAGATG-3′). Titrations were performed to insure that PCR reactions were carried out in the linear range of amplification. Mouse S16 ribosomal protein primers (5′-[…]-3′ and 5′-[…]-3′) were used to provide an internal control for the amount of template in the PCR reactions.

[3] = test system: retinal vasculature and neuronal function in the STZ-diabetic rat; assay: STZ-diabetic rat, topical eyedrops for 2 months or 9 months; assay type: in vivo
Procedure: Methods. Streptozotocin (STZ)-induced diabetic rats were assigned to 3 groups (untreated control, Nepafenac eyedrops, and vehicle eyedrops) for comparison to nondiabetic controls. Eyedrops were administered in both eyes 4 times/day using both subacute (2 mos) or chronic dosing paradigms (9 mos). During the 2 month study, prostaglandin E2 (PGE2), cyclooxygenase (COX)-2, and VEGF were measured by immunoassay, superoxide generation was measured by bioluminescence, activities of caspases 3 and 6 were measured fluorimetrically, and nitric oxide (NO) was estimated from levels of nitrite plus nitrate. Moreover, retinal leukostasis was quantified after intravenous perfusion with FITC-concanavalin A. During the 9-month study, vascular lesions associated with diabetic retinopathy were quantitated after isolation of the retinal vasculature by the trypsin digest technique, and loss of cells in the ganglion cell layer was evaluated in retinal cross-sections. In the chronic dosing study, retinal function also was assessed by measuring electroretinograms (ERGs) under dark and light adapted conditions to evaluate rod and cone pathways, respectively. The impact of topical ocular administration on corneal protease activity was assessed with MMP mRNA analysis and zymography. The signals were imported into Matlab™ (Mathworks Inc.) for further processing and the oscillatory potentials (OP's) were isolated using a 9 pole Butterworth filter with 34 Hz cutoff frequency (unity gain above 40 Hz and >12 dB attenuation 0 to 30 Hz). To simplify the analysis of OP timing the summed latency was calculated for OP's 1-4 similar to Hancock and Kraft, where TTP=(t1+t2+t3+t4) and tx=the time to peak of OPx.

visual acuity = conditions: Phase III, at 24 months, up to; cited from earlier work
[4] = 0.1% drops 4 times a day for 14 days
[5] = eyedrops 4 times/day, 2 months of diabetes

O=C(O)Cc1ccccc1Nc1c(Cl)cccc1Cl [diclofenac]
CNV lesions at Bruch's membrane rupture sites vs vehicle [1, 4]: no difference from vehicle-treated eyes

O=C(c1ccccc1)c1ccc2n1CCC2C(=O)O (centres unmarked) [ketorolac tromethamine]
size of CNV lesions vs vehicle ([1]; 0.5% drops 4 times a day for 1 week): no difference in the size of CNV lesions between the two groups
survival ([1]; 0.5% drops or vehicle 4 times a day for 1 week): All mice survived
CNV vs vehicle in surviving mice ([1]; 0.5% drops, 2 weeks, numbers insufficient for statistics): did not appear to have less CNV than mice treated with vehicle
mortality ([1]; 0.5% drops, two weeks): high mortality

NC(=O)Cc1cccc(C(=O)c2ccccc2)c1N [nepafenac, 2-Amino-3-benzoyl-phenylacetamide]
CNV lesions at Bruch's membrane rupture sites vs vehicle ([1]; 0.03% drops 4 times a day for 14 days): significantly smaller areas of CNV at Bruch's membrane rupture sites than did eyes treated with vehicle
CNV lesions at Bruch's membrane rupture sites vs vehicle ([1]; 0.03% drops 4 times a day for 14 days, listed as nepafanac): significantly smaller than those in eyes treated with vehicle
CNV lesions at Bruch's membrane rupture sites vs vehicle [1, 4]: significantly smaller areas of CNV at Bruch's membrane rupture sites than did eyes treated with vehicle
CNV lesions at Bruch's membrane rupture sites vs vehicle ([1]; 0.1% drops 4 times a day for 14 days, listed as nepafanac): significantly smaller than those in eyes treated with vehicle
CNV area vs vehicle ([1]; 0.1% drops 4 times a day, 2 weeks, first experiment): significantly smaller CNV lesions than treatment with vehicle
area of CNV in treated eye compared to vehicle-treated fellow eye ([1]; 0.1% drops in one eye, vehicle in fellow eye): significantly less
CNV area vs vehicle ([1]; 0.5% drops 4 times a day, 2 weeks): significantly smaller CNV lesions than treatment with vehicle
inhibition of laser-induced choroidal neovascularization ([1]; topical, mouse (FIG. 10)): inhibits laser-induced choroidal neovascularization
retinal (preretinal) neovascularization vs vehicle ([2]; 0.1% drops 4 times a day): significantly less retinal neovascularization; also recorded: significantly less preretinal NV
retinal (preretinal) neovascularization vs vehicle ([2]; 0.5% drops 4 times a day): significantly less retinal neovascularization; also recorded: significantly less preretinal NV
inhibition of preretinal neovascularization ([2]; topical, mouse OIR (FIG. 11)): inhibits preretinal neovascularization
retinal VEGF mRNA vs vehicle (VEGF mRNA; 0.1% drops 4 times a day): less VEGF mRNA than retinas from eyes treated with vehicle
retinal VEGF mRNA vs vehicle (VEGF mRNA; 0.5% drops 4 times a day): less VEGF mRNA than retinas from eyes treated with vehicle
protection against OP (oscillatory potential) delays, ERG ([3]; 0.3% topical, chronic dosing): completely protected
inhibition of morphologic vascular changes ([3]; 9 months of diabetes, STZ-diabetic rat (FIG. 12)): inhibits morphologic vascular changes present at 9 months of diabetes
diabetes-induced activation of caspases 3 and 6 in retina [3, 5]: partially inhibited
retinal VEGF or NO levels [3, 5]: no effect
TUNEL-positive capillary cells, acellular capillaries and pericyte ghosts ([3]; eyedrops 4 times/day, chronic dosing (9 months)): significantly inhibited all of these retinal abnormalities
corneal protease activity vs vehicle ([3]; topical, after 9 months of diabetes): No significant changes
OP summed latency (TTP) vs nondiabetic control animals ([3]; topical, chronic dosing): statistically no different than nondiabetic control animals

B1: ranibizumab (antibody, chains of the INN, looked up, V domains shown)
VH: EVQLVESGGGLVQPGGSLRLSCAASGYDFTHYGMNWVRQAPGKGLEWVGWINTYTGEPTYAADFKRRFTFSLDTSKSTAYLQMNSLRAEDTAVYYCAKYPYYYGTSHWYFDVWGQGTLVTVSS
VL: DIQLTQSPSSLSASVGDRVTITCSASQDISNYLNWYQQKPGKAPKVLIYFTSSLHSGVPSRFSGSGSGTDFTLTISSLQPEDFATYYCQQYSTVPWTFGQGTKVEIK
modifications: Fab
patients with improved visual acuity (visual acuity): 35-40%
